The subject of assay [1] is human ovarian carcinoma cisplatin-resistant A2780cisR. Kind of assay: Cytotoxicity, WST-1 cell viability assay, A2780cisR. In kind it is cell-based. Conditions: for IC50: 72 h exposure. The procedure:
In vitro cytotoxicity investigations were carried out by using human ovarian carcinoma cisplatin-sensitive A2780 (ECACC93112519), human ovarian carcinoma cisplatin-resistant A2780cisR (ECACC 93112517) and mouse embryo fibroblasts Balb/3T3 clone A31 (ATCC CCL-163) cell lines. A2780 and A2780cisR were purchased from the European Collection of Authenticated Cell Cultures (ECACC), and Balb/3T3 clone A31 cell line from the American Type Culture Collection (ATCC).
A2780 and A2780cisR cells were routinely cultured in RPMI 1640 (Merck) containing 2 mM of L-glutamine (Merck), 1% of penicillin/streptomycin solution (Merck—10 000 U mL^−1: 10 mg mL^−1), 10% of fetal bovine serum (Merck—FBS) and antimycotic (InvivoGen, USA), and Balb/3T3 clone A31 in Dulbecco’s modified Eagle medium (Merck—DMEM) supplemented with 4 mM of L-glutamine, 1% of penicillin/streptomycin solution, 10% of calf serum (Merck) and antimycotic. […] The cultures were maintained at 37 °C and in a 5% CO2-enriched atmosphere.
A2780, A2780cisR and Balb/3T3 clone A31 cells were seeded in 96-well tissue culture polystyrene plates at a concentration of 3 × 10^3, 6 × 10^3 and 1 × 10^3 cells per well, respectively. After overnight incubation, the cells were treated with different concentrations (0–100 µM) of the selected compounds for 72 h at 37 °C in a 5% atmosphere of CO2. Stock solutions of compounds were prepared in DMSO and sequentially diluted in medium (final DMSO concentration of 0.5%). […] At the end of the incubation time, cell viability was assessed by means of WST-1 tetrazolium salt reagent (Roche). Briefly, cells were incubated for 4 h with the tetrazolium salt reagent diluted 1:10, at 37 °C and 5% CO2. Measurements of formazan dye absorbance, which directly correlates with the number of viable cells, were carried out with a micro-plate reader (Biorad) at 450 nm, using 655 nm as reference wavelength. The 50% inhibitory concentration (IC50) refers to compound concentration at which 50% of cell death is observed with respect to the control. For each tested compound, assay was performed on triplicate. The concentration effect curves were generated by nonlinear regression curves (GraphPad Prism Software, 2021) and the data reported as mean ± standard deviation.

The next assay relates to A2780 cells. Kind of assay: Intracellular ROS production, DCFH-DA assay. Conditions: 20 μM, up to 24 h, DCFH-DA fluorescence. Format: cell-based, human. The procedure: The intracellular production of reactive oxygen species (ROS) upon treatment of the compounds 3b, 4a, 4c, 5b and 6c was measured by using the DCFH-DA (2′,7′-dichlorodihydrofluorescein diacetate, Merck) assay, based on cellular uptake of the non-fluorescent diacetate following deacetylation by esterases (2′,7′-dichlorodihydrofluorescein, DCFH) and oxidation to the fluorescent dichlorofluorescein (2′,7′-dichlorofluorescein, DCF). A2780 cells were seeded at concentration of 4 × 10^4 cells/well/90 µL of complete growth medium into 96-well plates. After overnight incubation, the cells were treated following manufacturer protocol. 100 µL of a solution containing the fluorogenic probe were added to the culture medium and, after 1 h of incubation with 5% CO2 at 37 °C, the cells were exposed to a final concentration of 20 µM of the tested complexes; H2O2 100 µM was used as a positive control. Stock solutions of compounds were prepared as described above; cells incubated with equal amounts of DMSO in supplemented RPMI were used as control. The fluorescence was measured up to 24 h with an excitation wavelength of 485 nm and with a 535 nm emission filter by Multilabel Counter (PerkinElmer). For each tested compound, assay was performed on triplicate. The data were reported as mean ± standard deviation, statistical differences were analyzed using one-way analysis of variance (ANOVA) and a Tukey test was used for post hoc analysis. A p-value < 0.05 is considered statistically significant.

The target of another assay is T1, cytochrome c (Cyt c) (Equus caballus, UniProt P00004).
T1 construct: purchased
The assay is described as follows: ESI-MS interaction with cytochrome c. In kind it is binding. Conditions: 24 h at 37 °C, protein-to-metal ratio 1:2, pH 6.8. The procedure:
• (a) Sample preparation. Cytochrome c (Cyt c) was commercially available and used as received; the TrxR dodecapeptide (TrxR-pept) was synthesized as reported in the literature. The stock solutions of the selected iron-based complexes were prepared in DMSO up to a final concentration of 10^−2 M. The stock solution of TrxR-pept was prepared in LC-MS grade water by dissolving the required amount of lyophilized peptide to reach a final concentration of 10^−3 M. The stock solution of Cyt c 10^−3 M was prepared by dissolving the required amount of protein in 2 mM ammonium acetate solution at pH 6.8. In the interaction tests with TrxR-pept, opportune aliquots of each complex and TrxR-pept stock solutions were mixed and diluted with LC-MS grade water to 10^−4 M final concentration and a TrxR-pept/complex ratio of 1:1. For each iron-based complex/Cyt c pair, appropriate aliquots of the respective stock solutions were mixed and subsequently diluted with 2 mM ammonium acetate solution (pH 6.8) to a final protein concentration of 10^−4 M and a protein-to-metal molar ratio of 1:2. All the sample mixtures were incubated for 24 h at 37 °C. Subsequently, opportune dilutions were performed as detailed: • – the TrxR-pept containing solutions were further diluted with LC-MS grade water to a final TrxR-pept concentration of 10^−5 M and added with 0.1% v/v of formic acid just before infusion in the mass spectrometer; • – the protein-containing solutions were diluted with 2 mM ammonium acetate solution (pH 6.8) to a final protein concentration of 10^−6 M and added with 0.1% v/v of formic acid just before infusion. • (b) ESI-MS instrumental parameters. The ESI mass spectra were acquired using a TripleTOF® 5600^+ high-resolution mass spectrometer (Sciex, Framingham, MA, USA), with a DuoSpray® interface operating with an ESI probe. Respective ESI mass spectra were acquired through direct infusion at 7 μL min^−1 flow rate. The ESI source parameters were optimized for each biomolecule and were as follows: for TrxR dodecapeptide positive polarity, ionspray voltage floating 5500 V, temperature 0, ion source gas 1 (GS1) 35 L min^−1; ion source gas 2 (GS2) 0; curtain gas (CUR) 20 L min^−1, declustering potential (DP) 300 V, collision energy (CE) 10 V, range 1070–1600 m/z; for Cyt c positive polarity, ionspray voltage floating 5500 V, temperature 0, ion source gas 1 (GS1) 35 L min^−1; ion source gas 2 (GS2) 0; curtain gas (CUR) 20 L min^−1, declustering potential (DP) 180 V, collision energy (CE) 10 V, range 500–1800 m/z. For acquisition, Analyst TF software 1.7.1 (Sciex, Framingham, MA, USA) was used and deconvoluted spectra were obtained by using the Bio Tool Kit micro-application v.2.2 embedded in PeakView^TM software v.2.2 (Sciex, Framingham, MA, USA).

Entries after “also recorded” stand apart in the source; their conditions may differ.

T1 sequence (P00004 whole entry): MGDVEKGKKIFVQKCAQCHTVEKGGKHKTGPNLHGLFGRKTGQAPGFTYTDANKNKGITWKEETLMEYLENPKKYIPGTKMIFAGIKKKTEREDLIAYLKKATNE

The IC50 is the midpoint of a concentration-inhibition curve. Read a high IC50 as weaker potency in that assay. In turn, “[Fe2Cp2(CO)(μ-CO){μ-η^1:η^3-C^3(Me)C^2(Me)C^1NMe(Cy)}]CF3SO3 [Compound 4c]” displayed an IC50 in assay [1] of 11.4 ± 0.9 µM. Moreover, the “Selectivity index vs A2780cisR” value in assay [1] (Balb/3T3 compared to A2780cisR) is recorded as 8. Also, the “Intracellular ROS production” value in the assay with A2780 cells is listed as “appreciable ROS production”. Besides, the “Interaction with Cyt c (ESI-MS)” value on cytochrome c (Cyt c) is reported as “substantial chemical inertness”.

With “[Fe2Cp2(CO)(μ-CO){μ-η^1:η^3-C^3(Me)C^2(Me)C^1N(CH2Ph)2}]CF3SO3 [Compound 2c]”, the “Interaction with Cyt c (ESI-MS)” value at cytochrome c (Cyt c) is recorded as “substantial chemical inertness”.

“[Fe2Cp2(CO)(μ-CO){μ-η^1:η^3-C^3(Me)C^2(Me)C^1NMe(CH2Ph)}]CF3SO3 [Compound 5b]” displayed an IC50 in assay [1] of 12 ± 4 µM. The “Intracellular ROS production” value in the assay on A2780 cells is recorded as “appreciable ROS production; also recorded: most effective of the series”. In addition, at cytochrome c (Cyt c), the “Interaction with Cyt c (ESI-MS)” value is given as “substantial chemical inertness”.

For “[Fe2Cp2(CO)(μ-CO){μ-η^1:η^3-C^3(Me)C^2(Me)C^1NMe(2-naphthyl)}]CF3SO3 [Compound 7]”, on cytochrome c (Cyt c), the “Interaction with Cyt c (ESI-MS)” value is “substantial chemical inertness”.

For the substance “[Fe2Cp2(CO)(μ-CO){μ-η^1:η^3-C^3(Me)C^2HC^1NMe(Cy)}]CF3SO3 [Compound 4a]”, in assay [1], the midpoint of inhibition, the IC50, lay at 11.6 ± 1.3 µM. Further, the “Intracellular ROS production” value in the assay on A2780 cells is given as “appreciable ROS production”. The “Interaction with Cyt c (ESI-MS)” value at cytochrome c (Cyt c) is “substantial chemical inertness”.

Regarding “[Fe2Cp2(CO)(μ-CO){μ-η^1:η^3-C^3(Ph)C^2HC^1NMe(4-C6H4OMe)}]CF3SO3 [Compound 6b]”, the “Interaction with Cyt c (ESI-MS)” value on cytochrome c (Cyt c) was “substantial chemical inertness”.

“[Fe2Cp2(CO)(μ-CO){μ-η^1:η^3-C^3(Ph)C^2HC^1NMe(CH2CH = CH2)}]CF3SO3 [Compound 3b]” yielded an IC50 in assay [1] of 29 ± 3 µM. In addition, the “Intracellular ROS production” value with A2780 cells is “appreciable ROS production”. Besides, on cytochrome c (Cyt c), the “Interaction with Cyt c (ESI-MS)” value is given as “substantial chemical inertness”.

The substance “[Fe2Cp2(CO)(μ-CO){μ-η^1:η^3-C^3(Me)C^2(Me)C^1NMe(4-C6H4OMe)}]CF3SO3 [Compound 6c]” yielded an IC50 in assay [1] of 17 ± 3 µM. The “Intracellular ROS production” value in the assay with A2780 cells is recorded as “appreciable ROS production”. Also, the “Interaction with Cyt c (ESI-MS)” value on cytochrome c (Cyt c) is “substantial chemical inertness”.

The values above are taken from publication PMC8398472, “Anticancer Diiron Vinyliminium Complexes: A Structure–Activity Relationship Study” (Pharmaceutics, 2021).
